A word on the IC50: it is the concentration that gives 50% inhibition.

One test concerns the target hDGAT2 (Homo sapiens (Human), UniProt Q96PD7). Description: In vitro DGAT2 assay, hDGAT2 membrane fraction, [14C]decanoyl-CoA scintillation readout. The format is biochemical. To be noted: geometric mean; FLAG-hDGAT2 membrane fraction; 2 h preincubation; read-out: IC50 for inhibition of DGAT2. The procedure:
Recombinant baculovirus for the FLAG-tagged hDGAT2 was generated in SF9 insect cells using Bac-to-Bac baculovirus expression system (Invitrogen) according to the manufacturer's protocol. For the expression of hDGAT2, SF9 cells (20 L) grown in Sf90011 media were infected with hDGAT2 baculovirus at a multiplicity of infection of 1 in a Wave Bioreactor System 20/50P wave bag (GE Healthcare). After 40 hours of infection, the cells were then harvested by centrifugation at 5,000×g. The cell pellets were washed by resuspending in phosphate buffered saline (PBS) and collected by centrifugation at 5,000×g. The cell paste was flash frozen in liquid N2 and stored at −80° C. until needed. All operations below were at 4° C. unless otherwise noted. The cells were resuspended in lysis buffer (50 mM Tris-HCl, pH 8.0, 250 mM sucrose) including 1 mM ethylenediaminetetraacetic acid (EDTA) and the complete protease inhibitor cocktail (Roche Diagnostics) at a ratio of 3 ml buffer per 1 g cell paste. The cells were lysed by dounce homogenizer. The cell debris was removed by centrifugation at 1,000×g for 20 min, and the supernatant was centrifuged at 100,000×g for 1 hour. The resulting pellet was rinsed three times by filling ultracentrifuge tubes to the top with ice cold PBS before decanting. The washed pellet was resuspended with gentle stirring for 1 hour in lysis buffer containing 8 mM 3-[(3-cholamidopropyl)dimethylammonio]-1-propanesulfonate (CHAPS) at a ratio of 1 mL buffer per 1 g of original cell paste and centrifuged again at 100,000×g for 1 hour. The resulting supernatant was aliquotted, flash frozen in liquid N2, and stored at −80° C. until use.
For determination of IC50 values, the reactions were carried out in 384-well white Polyplates (Perkin Elmer) in a total volume of 20 μL. To […] compounds dissolved in 100% DMSO and spotted at the bottom of each well, 5 μL of 0.04% bovine serum albumin (BSA) (fatty acid free, Sigma Aldrich) was added and the mixture was incubated at room temperature for 20 minutes. To this mixture, 10 μL of hDGAT2 membrane fraction (0.01 mg/mL) diluted in 100 mM Hepes-NaOH, pH 7.4, 20 mM MgCl2 containing 200 nM methyl arachidonyl fluorophosphonate (Cayman Chemical; dried from ethyl acetate stock solution under argon gas and dissolved in DMSO as 5 mM stock) was added. After this mixture was preincubated at room temperature for 2 hours, DGAT2 reactions were initiated by the addition of 4 μL of substrates containing 30 μM [1-^14C]decanoyl-CoA (custom-synthesized by Perkin Elmer, 50 mCi/mmol) and 125 μM 1,2-didecanoyl-sn-glycerol (Avanti Polar Lipids) dissolved in 12.5% acetone. The reaction mixtures were incubated at room temperature for 40 min and the reactions were stopped by addition of 5 μL of 1% H3PO4. After the addition of 45 μL MicroScint-E (Perkin-Elmer), plates were sealed with Top Seal-A covers (Perkin-Elmer) and phase partitioning of substrates and products was achieved using a HT-91100 microplate orbital shaker (Big Bear Automation, Santa Clara, Calif.). Plates were centrifuged at 2,000×g for 1 min in an Allegra 6R Centrifuge (Beckman Coulter) and then were sealed again with fresh covers before reading in a 1450 Microbeta Wallac Trilux Scintillation Counter (Perkin Elmer). DGAT2 activity was measured by quantifying the generated product [^14C]tridecanoylglycerol in the upper organic phase.
Inhibitors were tested at eleven different concentrations to generate IC50 values for each compound.

For test [1], the target named is DGAT2 in primary human hepatocytes (Homo sapiens (Human), UniProt Q96PD7). Description: IC50 for DGAT2 inhibitors in human hepatocytes, [14C]-glycerol incorporation into lipids. Format: cell-based. To be noted: average; cryopreserved human hepatocytes; selective DGAT1 inhibitor 3 μM in all wells; 3 hour incubation; read-out: IC50 in primary human hepatocytes. How it is done:
For evaluation of the effects of DGAT2 inhibitors in a cell-based setting, cryopreserved human hepatocytes (Lot QOC and NON, Celsis, Chicago, Ill.) were thawed and plated onto type I collagen-coated plates according to the manufacturer's instructions. After 24 hours overnight recovery period, the cells were overlayed with media containing 250 μg/ml Matrigel (BD Biosciences, San Jose, Calif.). The following day, media was aspirated and replaced with serum-free Williams Media E (Life Technologies, Grand Island, N.Y.) containing 400 μM sodium dodecanoate (Sigma-Aldrich, St. Louis, Mo.). Forty minutes later, DGAT2 inhibitors (prepared as 100× stocks in 25% DMSO, 75% Williams' Media E) were added to the desired final concentration. […] After a 20 minute preincubation, 0.2 μCi [1,3-^14C]-glycerol glycerol (American Radio Chemicals, St. Louis, Mo.) was added to each well and mixed by gentle pipetting prior to a 3 hour incubation. At this point, media was aspirated and the cells were lysed in isopropyl alcohol: tetrahydrofuran (9:1) prior to centrifugation at 3000 rpm for 5 minutes. Radiolabeled lipids were resolved using a 2-solvent system by thin layer chromatography using standard technique (solvent 1 contained ethyl acetate:isopropyl alcohol:chloroform:methanol:0.25% potassium chloride in water (100:100:100:40.2:36.1, v/v/v/v) and solvent 2 contained hexane: diethyl ether: acetic acid (70:27:3, v/v/v)). After separation, radiolabeled lipids were visualized using a Molecular Dynamics' PhosphorImager system. The half maximal inhibitory concentrations (IC50 values) were determined using GraphPad Prism (GraphPad Software, Inc., La Jolla, Calif.).
Table 4 below provides IC50 values for the Examples in accordance with the above-described assay. Results were reported as average IC50 values, low and high IC50 range (95% confidence interval).

Chain of hDGAT2 (Q96PD7 whole entry): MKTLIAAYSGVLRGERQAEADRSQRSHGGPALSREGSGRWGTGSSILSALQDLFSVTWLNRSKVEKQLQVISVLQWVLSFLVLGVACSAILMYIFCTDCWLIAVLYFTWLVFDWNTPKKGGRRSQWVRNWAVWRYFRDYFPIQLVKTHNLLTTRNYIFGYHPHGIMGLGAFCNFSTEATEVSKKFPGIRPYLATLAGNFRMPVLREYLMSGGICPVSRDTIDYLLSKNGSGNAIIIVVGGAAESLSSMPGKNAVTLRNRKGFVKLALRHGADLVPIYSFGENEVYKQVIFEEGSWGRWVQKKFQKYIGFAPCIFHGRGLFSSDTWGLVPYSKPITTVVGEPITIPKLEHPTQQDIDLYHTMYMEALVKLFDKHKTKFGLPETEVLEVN
Chain of DGAT2 in primary human hepatocytes (Q96PD7 whole entry): as above

For `CCOc1ccccc1O[C@@H]1CCCN(c2ncc(C(=O)NCc3cc(C(=O)O)cnc3C)cn2)C1` [Example 12, (R)-5-((2-(3-(2-ethoxyphenoxy)piperidin-1-yl)pyrimidine-5-carboxamido)methyl)-6-methylnicotinic acid], the concentration for half-maximal inhibition (IC50) at hDGAT2 came out at 62.3 nM; in test [1], 67.5 nM.
For `CCOc1ccccc1O[C@@H]1CCCN(c2ncc(C(=O)NCc3ccnc(C(=O)O)c3)cc2F)C1` [Example 8, (R)-4-((6-(3-(2-ethoxyphenoxy)piperidin-1-yl)-5-fluoronicotinamido)methyl)picolinic acid], the half-inhibitory concentration (IC50) at hDGAT2 came out at 9.7 nM; in test [1], 51.7 nM.
The like results for `CCOc1ccccc1O[C@@H]1CCCN(c2ccc(C(=O)NCc3cccc(C(=O)O)c3)cn2)C1` [Example 7, (R)-3-((6-(3-(2-ethoxyphenoxy)piperidin-1-yl)nicotinamido)methyl)benzoic acid] were, in that order, 149 nM and 19.2 nM.
Turning to `CCOc1ccccc1O[C@@H]1CCCN(c2ncc(C(=O)NCc3ccc(C(C)C(=O)O)cc3)cn2)C1` (single isomer, unassigned) [Example 15], the half-maximal inhibitory concentration (IC50) on hDGAT2 came out at 2.4 nM; in test [1] it was 78.8 nM.
The like results for `CCNC(=O)c1cnc(N2CCC[C@@H](Oc3ccccc3OCC)C2)nc1` [Example 4, (R)-2-(3-(2-ethoxyphenoxy)piperidin-1-yl)-N-ethylpyrimidine-5-carboxamide] were, in that order, 35 nM and 6.6 nM.
In the same order, the values of `CCOc1ccccc1O[C@@H]1CCCN(c2ncc(C(=O)N[C@H](C)c3cccc(C(=O)O)c3)cn2)C1` [Example 3, 3-((R)-1-(2-((R)-3-(2-ethoxyphenoxy)piperidin-1-yl)pyrimidine-5-carboxamido)ethyl)benzoic acid] are 88.4 nM and 29.2 nM.
For the compound `CCOc1ccccc1O[C@@H]1CCCN(c2ncc(C(=O)N3CC[C@H]3C(N)=O)cn2)C1` [Example 20.10, (S)-1-(2-((R)-3-(2-ethoxyphenoxy)piperidin-1-yl)pyrimidine-5-carbonyl)azetidine-2-carboxamide], the IC50 at hDGAT2 is 170 nM; in test [1], 59.8 nM.
In the same order, the values of `CCOc1ccccc1O[C@@H]1CCCN(c2ncc(C(=O)NCc3cc(C(=O)O)ccc3OC)cn2)C1` [Example 11, (R)-3-((2-(3-(2-ethoxyphenoxy)piperidin-1-yl)pyrimidine-5-carboxamido)methyl)-4-methoxybenzoic acid] are 122 nM and 6.8 nM.
Regarding `CCOc1ccccc1O[C@@H]1CCCN(c2ncc(C(=O)NCc3ccc(C(=O)O)cc3)cn2)C1` [Example 18.1, (R)-4-((2-(3-(2-ethoxyphenoxy)piperidin-1-yl)pyrimidine-5-carboxamido)methyl)benzoic acid], the IC50 came out at 165 nM at hDGAT2 and 116 nM in test [1].
In the same order, the values of `CCOc1ccccc1O[C@@H]1CCCN(c2ncc(C(=O)NCc3cc(OC)cc(C(=O)O)c3)cn2)C1` [Example 2, (R)-3-((2-(3-(2-ethoxyphenoxy)piperidin-1-yl)pyrimidine-5-carboxamido)methyl)-5-methoxybenzoic acid] are 123 nM and 11.5 nM.
With `CCOc1ccccc1O[C@@H]1CCCN(c2ncc(C(=O)N3Cc4ccccc4C3)cn2)C1` [Example 19.12, (R)-(2-(3-(2-ethoxyphenoxy)piperidin-1-yl)pyrimidin-5-yl)(isoindolin-2-yl)methanone], the IC50 on hDGAT2 was 1.4 nM.
As to `CCOc1ccccc1O[C@@H]1CCCN(c2ncc(C(=O)N(C)C)cn2)C1` [Example 20.3, (R)-2-(3-(2-ethoxyphenoxy)piperidin-1-yl)-N,N-dimethylpyrimidine-5-carboxamide], the half-maximal inhibitory concentration (IC50) at hDGAT2 was 104 nM.
For the compound `CCOc1ccccc1O[C@@H]1CCCN(c2ncc(C(=O)NCCS(C)(=O)=O)cn2)C1` [Example 19.8, (R)-2-(3-(2-ethoxyphenoxy)piperidin-1-yl)-N-(2-(methylsulfonyl)ethyl) pyrimidine-5-carboxamide], the 50% inhibitory concentration (IC50) at hDGAT2 came to 102 nM.

Source of the values: patent US9789110B2, “Diacylglycerol acyltransferase 2 inhibitors” (PFIZER INC., priority 2014, dated 2017).
